Laboratory results as given in BigSolDB 2.1.

O=S(=O)(c1ccccc1)N(F)S(=O)(=O)c1ccccc1
Conditions	solubility (mole fraction)
in 2-butanone, 273.35 K	0.0332
in 2-butanone, 278.35 K	0.0396
in 2-butanone, 283.35 K	0.047
in 2-butanone, 288.35 K	0.0546
in 2-butanone, 292.85 K	0.0637
in 2-butanone, 297.95 K	0.0734
in 2-butanone, 302.65 K	0.0852
in 2-butanone, 307.35 K	0.0978
in 2-butanone, 312.55 K	0.111
in 2-butanone, 316.95 K	0.128
in 2-butanone, 322.85 K	0.146
in 2-pentanone, 273.35 K	0.0316
in 2-pentanone, 278.35 K	0.038
in 2-pentanone, 283.35 K	0.0455
in 2-pentanone, 288.35 K	0.0534
in 2-pentanone, 292.85 K	0.0628
in 2-pentanone, 297.95 K	0.073
in 2-pentanone, 302.65 K	0.0853
in 2-pentanone, 307.35 K	0.0988
in 2-pentanone, 312.55 K	0.113
in 2-pentanone, 316.95 K	0.131
in 2-pentanone, 322.85 K	0.151
in acetone, 273.35 K	0.0309
in acetone, 278.35 K	0.0376
in acetone, 283.35 K	0.0455
in acetone, 288.35 K	0.0539
in acetone, 292.85 K	0.0639
in acetone, 297.95 K	0.0749
in acetone, 302.65 K	0.0885
in acetone, 307.35 K	0.104
in acetone, 312.55 K	0.119
in acetone, 316.95 K	0.14
in acetone, 322.85 K	0.162
in acetonitrile, 273.35 K	0.00951
in acetonitrile, 278.35 K	0.0126
in acetonitrile, 283.35 K	0.0165
in acetonitrile, 288.35 K	0.021
in acetonitrile, 292.85 K	0.0267
in acetonitrile, 297.95 K	0.0334
in acetonitrile, 302.65 K	0.0422
in acetonitrile, 307.35 K	0.0528
in acetonitrile, 312.55 K	0.0645
in acetonitrile, 316.95 K	0.0804
in acetonitrile, 322.85 K	0.0996
in ethanol, 273.35 K	0.000599
in ethanol, 278.35 K	0.000791
in ethanol, 283.35 K	0.00103
in ethanol, 288.35 K	0.00134
in ethanol, 292.85 K	0.00168
in ethanol, 297.95 K	0.00214
in ethanol, 302.65 K	0.00268
in ethanol, 307.35 K	0.00331
in ethanol, 312.55 K	0.00417
in ethanol, 316.95 K	0.00503
in ethanol, 322.85 K	0.00641
in ethyl acetate, 273.35 K	0.0243
in ethyl acetate, 278.35 K	0.0295
in ethyl acetate, 283.35 K	0.0353
in ethyl acetate, 288.35 K	0.0415
in ethyl acetate, 292.85 K	0.0489
in ethyl acetate, 297.95 K	0.0568
in ethyl acetate, 302.65 K	0.0668
in ethyl acetate, 307.35 K	0.0775
in ethyl acetate, 312.55 K	0.0885
in ethyl acetate, 316.95 K	0.103
in ethyl acetate, 322.85 K	0.119
in ethyl formate, 273.35 K	0.0206
in ethyl formate, 278.35 K	0.0254
in ethyl formate, 283.35 K	0.0309
in ethyl formate, 288.35 K	0.0369
in ethyl formate, 292.85 K	0.0441
in ethyl formate, 297.95 K	0.052
in ethyl formate, 302.65 K	0.0619
in ethyl formate, 307.35 K	0.0728
in ethyl formate, 312.55 K	0.0843
in ethyl formate, 316.95 K	0.0992
in ethyl formate, 322.85 K	0.116
in isobutanol, 273.35 K	0.000182
in isobutanol, 278.35 K	0.000265
in isobutanol, 283.35 K	0.000382
in isobutanol, 288.35 K	0.000545
in isobutanol, 292.85 K	0.000744
in isobutanol, 297.95 K	0.00104
in isobutanol, 302.65 K	0.00141
in isobutanol, 307.35 K	0.00188
in isobutanol, 312.55 K	0.00258
in isobutanol, 316.95 K	0.00332
in isobutanol, 322.85 K	0.00467
in isopentanol, 273.35 K	0.000312
in isopentanol, 278.35 K	0.000432
in isopentanol, 283.35 K	0.000594
in isopentanol, 288.35 K	0.000812
in isopentanol, 292.85 K	0.00106
in isopentanol, 297.95 K	0.00142
in isopentanol, 302.65 K	0.00184
in isopentanol, 307.35 K	0.00238
in isopentanol, 312.55 K	0.00312
in isopentanol, 316.95 K	0.00389
in isopentanol, 322.85 K	0.00519
in isopropanol, 273.35 K	0.000584
in isopropanol, 278.35 K	0.000798
in isopropanol, 283.35 K	0.000929
in isopropanol, 288.35 K	0.00121
in isopropanol, 292.85 K	0.0015
in isopropanol, 297.95 K	0.00186
in isopropanol, 302.65 K	0.00226
in isopropanol, 307.35 K	0.00275
in isopropanol, 312.55 K	0.00346
in isopropanol, 316.95 K	0.0041
in isopropanol, 322.85 K	0.00495
in methanol, 273.35 K	0.000611
in methanol, 278.35 K	0.000792
in methanol, 283.35 K	0.00102
in methanol, 288.35 K	0.0013
in methanol, 292.85 K	0.0016
in methanol, 297.95 K	0.00201
in methanol, 302.65 K	0.00248
in methanol, 307.35 K	0.00302
in methanol, 312.55 K	0.00374
in methanol, 316.95 K	0.00445
in methanol, 322.85 K	0.0056
in methyl acetate, 273.35 K	0.0285
in methyl acetate, 278.35 K	0.0346
in methyl acetate, 283.35 K	0.0417
in methyl acetate, 288.35 K	0.0492
in methyl acetate, 292.85 K	0.0583
in methyl acetate, 297.95 K	0.0681
in methyl acetate, 302.65 K	0.0803
in methyl acetate, 307.35 K	0.0934
in methyl acetate, 312.55 K	0.107
in methyl acetate, 316.95 K	0.126
in methyl acetate, 322.85 K	0.145
in n-butanol, 273.35 K	0.00053
in n-butanol, 278.35 K	0.000696
in n-butanol, 283.35 K	0.000909
in n-butanol, 288.35 K	0.00117
in n-butanol, 292.85 K	0.00147
in n-butanol, 297.95 K	0.00187
in n-butanol, 302.65 K	0.00233
in n-butanol, 307.35 K	0.00287
in n-butanol, 312.55 K	0.0036
in n-butanol, 316.95 K	0.00433
in n-butanol, 322.85 K	0.00551
in n-pentanol, 273.35 K	0.000465
in n-pentanol, 278.35 K	0.000632
in n-pentanol, 283.35 K	0.000843
in n-pentanol, 288.35 K	0.00112
in n-pentanol, 292.85 K	0.00142
in n-pentanol, 297.95 K	0.00186
in n-pentanol, 302.65 K	0.00236
in n-pentanol, 307.35 K	0.00298
in n-pentanol, 312.55 K	0.00382
in n-pentanol, 316.95 K	0.0047
in n-pentanol, 322.85 K	0.00613
in n-propanol, 273.35 K	0.000452
in n-propanol, 278.35 K	0.000616
in n-propanol, 283.35 K	0.000832
in n-propanol, 288.35 K	0.00111
in n-propanol, 292.85 K	0.00142
in n-propanol, 297.95 K	0.00187
in n-propanol, 302.65 K	0.00239
in n-propanol, 307.35 K	0.00304
in n-propanol, 312.55 K	0.00392
in n-propanol, 316.95 K	0.00485
in n-propanol, 322.85 K	0.00633
in toluene, 273.35 K	0.0112
in toluene, 278.35 K	0.0145
in toluene, 283.35 K	0.0185
in toluene, 288.35 K	0.0228
in toluene, 292.85 K	0.0284
in toluene, 297.95 K	0.0346
in toluene, 302.65 K	0.0429
in toluene, 307.35 K	0.052
in toluene, 312.55 K	0.0623
in toluene, 316.95 K	0.076
in toluene, 322.85 K	0.092
